# Data: patent US20240108008A1, “COMPOSITIONS COMPRISING MESOSULFURON-METHYL AND TEHP” (BAYER AKTIENGESELLSCHAFT, priority 2020, published 2024)
# What was measured:
# harmful plants = test: Adjuvant effect on performance of mesosulfuron-methyl; type: in vivo; conditions: same application rate as tri(butoxyethyl) phosphate (TBEP)
# TRZAW, winter wheat = test: Greenhouse selectivity trials, wheat crop injury post-emergence; type: in vivo, winter wheat (variety: Dekan); conditions: 2 kg of TEHP per hectare, in combination with mesosulfuron-methyl and/or a salt thereof
# Text: The 00 damage (injury) indicated refers to the maximum damage observed in the respective crop.
smiles,measurement,setting,value
"CCCCC(CC)COP(=O)(OCC(CC)CCCC)OCC(CC)CCCC (centres unmarked) [TEHP, Tris(2-ethylhexyl) phosphate]",effects as adjuvant in comparison to TBEP,harmful plants,superior
same,phytotoxic effects in crop plants such as wheat,"TRZAW, winter wheat",significant phytotoxic effects
